One assay concerns the target T1, recombinant Aurora A (Homo sapiens, UniProt O14965).
T1 construct: purchased Upstate, Lake Placid, N.Y
T1 sequence (O14965 1-403): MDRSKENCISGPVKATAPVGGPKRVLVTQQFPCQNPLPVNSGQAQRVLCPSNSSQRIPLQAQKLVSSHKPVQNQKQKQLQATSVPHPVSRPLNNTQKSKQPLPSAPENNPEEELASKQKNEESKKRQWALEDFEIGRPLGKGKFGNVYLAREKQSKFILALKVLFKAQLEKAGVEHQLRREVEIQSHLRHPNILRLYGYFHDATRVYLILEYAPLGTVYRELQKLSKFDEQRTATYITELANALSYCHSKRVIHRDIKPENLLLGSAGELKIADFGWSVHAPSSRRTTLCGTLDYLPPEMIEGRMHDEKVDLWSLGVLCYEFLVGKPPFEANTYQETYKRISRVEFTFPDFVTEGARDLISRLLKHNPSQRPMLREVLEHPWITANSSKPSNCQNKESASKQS
Description: Aurora A (Aurora 2) Inhibition Assay (Z'-Lyte). The assay is classed as biochemical. The note with it: 100 μM compound; ATP 10 μM; 1 h. The protocol: Compounds were tested for their potency against recombinant Aurora A (Upstate, Lake Placid, N.Y.) using the PanVera Z'-Lyte kinase assay kit-Ser/[…] peptide (Invitrogen, Carlsbad, Calif.). […] Assays were carried out in half-area 96-well white polystyrene assay plates (Corning, Corning, N.Y.) in a final volume of 20 μl. The reaction was allowed to proceed for 1 h at room temperature in the dark, at which point the development reagent and stop reagent were added according to the manufacturer's instructions. Coumarin (Ex. 400 nm, Em. 465 nm) and fluorescein (Ex. 400 nm, Em. 565 nm) fluorescence values were measured on a SpectraFluor Plus plate reader (Tecan, Durham, N.C.). The emission ratio (coumarin/fluorescein) was determined and used to calculate the percent phosphorylation for each well. […] Typically 20-40% of the substrate was phosphorylated in wells without inhibitor. Dose-response curves of relative Aurora A activity vs. inhibitor concentration were plotted with Grafit (Erithacus Software, Horley, Surrey, UK).

The test system of the next assay is HCT-116 cell growth. The experiment in a line: Whole Cell Cytotoxicity Assay: Sulforhodamine B. The assay is classed as cell-based, Human. The conditions noted are these: Homo sapiens, HCT-116; 100 μM compound; 96 hours; SRB staining. On the procedure: Human tumor-derived cell lines, HCT116 or MCF7 (ATCC) were plated in a 96 well plate in DMEM containing 10% fetal bovine serum and 2 mM L-glutamine at a density of 500 HCT116 cells or 1,000 MCF7 cells per well and incubated at 37° C., 5% CO2, for 24 hours prior to the addition of experimental compounds. Compounds were added using the dilution series indicated to duplicate plates and the cells were incubated in media plus compound for 96 hours. An additional plate was fixed in 10% TCA at the time of the addition of compound to provide a measurement of the cell population at time zero, the time of drug addition. Following the 96 hour incubation, cells were fixed in situ by gently aspirating off the culture media and then adding 50 ul of ice cold 10% TCA per well and incubation at 4° C. for 60 minutes. The plates were washed with tap water five times and allowed to air dry for 5 minute. 50 ul of a 0.4% (w/v) Sulforhodamine B solution in 1% (v/v) acetic acid was added per well and the cells were incubated for 30 minutes at room temperature. Following staining, plates were washed four times with 1% acetic acid to remove any unbound dye and then allowed to air dry for 5 minutes. The stain was solubilized with 100 ul of 10 mM Tris pH 10.5 per well and placed on an orbital rotator for 5 minutes. The absorbance was read at 570 nm. Percentage growth was calculated using the absorbance readings from the time zero plate (Tz) and the dilution series plate […] which included a column of cells grown in media without compound as a control (C) using the formulas: [(Ti−Tz)/(C−Tz)]×100 for concentrations for which Ti>/=Tz [(Ti−Tz)/Tz]×100 for concentrations for which Ti<Tz.
Three dose response parameters were calculated for each experimental agent. Growth inhibition of 50% (GI50) was calculated from [(Ti−Tz)/(C−Tz)]×100=50, which was the drug concentration resulting in a 50% reduction in the net protein increase (as measured by SRB staining) in control cells during the drug incubation. The drug concentration resulting in total growth inhibition (TGI) was calculated from Ti=Tz. The LC50 (concentration of drug resulting in a 50% reduction in the measured protein at the end of the drug treatment as compared to that at the beginning) indicating a net loss of cells following treatment was calculated from [(Ti−Tz)/Tz]×100=−50. Values are calculated for each of these three parameters if the level of activity was reached; however, if the effect was not reached or was exceeded, the value for that parameter is expressed as greater or less than the maximum or minimum concentration tested.

For a further assay, the target named is T2, Aurora B kinase (Homo sapiens, UniProt Q96GD4).
T2 construct: purchased BPS Biosciences, San Diego, Calif
The experiment in a line: Aurora B (Aurora 1) Inhibition Assay. Type of assay: biochemical. The conditions noted are these: 100 μM compound; ATP 50 μM; 16 h. On the procedure: Assays for Aurora B kinase inhibition were carried out similarly to those for Aurora A kinase (see above) with the following modifications. Aurora B kinase (BPS Biosciences, San Diego, Calif.) was used as the enzyme, at a concentration was 2.5 μg/mL. The ATP concentration was 50 μM, and the kinase reaction was allowed to proceed for 16 h. Sodium orthovanadate (20 μM) was added to the buffer to inhibit contaminating phosphatases.

For orientation: inhibition means how much of the control response was suppressed.

T2 sequence (Q96GD4 whole entry): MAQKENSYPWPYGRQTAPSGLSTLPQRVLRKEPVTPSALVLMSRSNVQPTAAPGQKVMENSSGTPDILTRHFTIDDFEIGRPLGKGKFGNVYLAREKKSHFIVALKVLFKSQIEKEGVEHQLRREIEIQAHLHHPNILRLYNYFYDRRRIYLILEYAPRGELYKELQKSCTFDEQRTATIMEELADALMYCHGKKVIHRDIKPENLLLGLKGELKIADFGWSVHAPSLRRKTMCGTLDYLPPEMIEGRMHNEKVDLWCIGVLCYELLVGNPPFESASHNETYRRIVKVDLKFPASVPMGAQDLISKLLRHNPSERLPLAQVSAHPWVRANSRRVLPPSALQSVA

Turning to `CCOC(=O)c1nc(/C=C/c2ccccc2)nc(Nc2cc(C)n[nH]2)c1N` [Example 18, ethyl 5-amino-6-[(3-methyl-1H-pyrazol-5-yl)amino]-2-[(E)-2-phenylvinyl]pyrimidine-4-carboxylate], the results for the inhibition at 100 µM on recombinant Aurora A, in the assay with HCT-116 cell growth and against Aurora B kinase were 100%, 80% and 100%, respectively.

Consider `COC(=O)c1cc(Nc2cc(C)n[nH]2)nc(/C=C/c2ccccc2)n1` [Example 26, methyl 6-[(3-methyl-1H-pyrazol-5-yl)amino]-2-[(E)-2-phenylvinyl]pyrimidine-4-carboxylate], for which the inhibition at 100 µM at recombinant Aurora A was determined as 99%; in the assay with HCT-116 cell growth it was 98%; against Aurora B kinase, 95%.

Consider `Cc1cc(Nc2cc(N3CCN(C)CC3)nc(C#Cc3ccccc3)n2)n[nH]1` [Example 30, 6-(4-methylpiperazin-1-yl)-N-(3-methyl-1H-pyrazol-5-yl)-2-(phenylethynyl)pyrimidin-4-amine], for which the inhibition at 100 µM at recombinant Aurora A was 100%; in the assay with HCT-116 cell growth, 99%; against Aurora B kinase it was 97%.

Take `Cc1cc(Nc2cc(N3CCN(C)CC3)nc(/C=C\c3ccccc3)n2)n[nH]1` [Example 32, 6-(4-methylpiperazin-1-yl)-N-(3-methyl-1H-pyrazol-5-yl)-2-[(Z)-2-phenylvinyl]pyrimidin-4-amine]: the inhibition at 100 µM is 100% on recombinant Aurora A, 87% with HCT-116 cell growth and 99% against Aurora B kinase.

For the compound `Cc1cc(Nc2cc(N3CCN(C)CC3)nc(/C=C/c3ccco3)n2)n[nH]1` [Example 60, 2-((E)-2-(furan-2-yl)vinyl)-N-(5-methyl-1H-pyrazol-3-yl)-6-(4-methylpiperazin-1-yl)pyrimidin-4-amine], the inhibition at 100 µM at recombinant Aurora A turned out to be 100%; with HCT-116 cell growth it was 98%; against Aurora B kinase, 99%.

Take `Cc1cc(Nc2cc(N3CCOCC3)nc(/C=C/c3ccccc3)n2)n[nH]1` [Example 64, N-(5-methyl-1H-pyrazol-3-yl)-6-morpholino-2-styrylpyrimidin-4-amine]: the figures for the inhibition at 100 µM at recombinant Aurora A and with HCT-116 cell growth were 100% and 98%, respectively.

For `Cc1cc(Nc2cc(NCCN(C)C)nc(/C=C/c3ccccc3)n2)n[nH]1` [Example 66, N^4-(2-(dimethylamino)ethyl)-N^6-(5-methyl-1H-pyrazol-3-yl)-2-styrylpyrimidine-4,6-diamine], the values for the inhibition at 100 µM on recombinant Aurora A and in the assay on HCT-116 cell growth were 100% and 98%, respectively.

Turning to `Cc1cc(Nc2cc(N3CCCCC3)nc(/C=C/c3ccccc3)n2)n[nH]1` [Example 67, N-(5-methyl-1H-pyrazol-3-yl)-6-(piperidin-1-yl)-2-styrylpyrimidin-4-amine], the inhibition at 100 µM at recombinant Aurora A was found to be 100%; in the assay on HCT-116 cell growth, 98%.

Regarding `Cc1cc(Nc2cc(OCCN(C)C)nc(/C=C/c3ccccc3)n2)n[nH]1` [Example 69], the inhibition at 100 µM at recombinant Aurora A was 100%; in the assay with HCT-116 cell growth it was 99%.

As to `Cc1cc(Nc2cc(N3CCN(S(C)(=O)=O)CC3)nc(/C=C/c3ccccc3)n2)n[nH]1` [Example 71, N-(5-methyl-1H-pyrazol-3-yl)-6-(4-methylsulfonylpiperazin-1-yl)-2-styrylpyrimidin-4-amine], the inhibition at 100 µM at recombinant Aurora A stood at 100%; in the assay with HCT-116 cell growth, 98%.

Consider `Cc1cc(Nc2cc(NCCN3CCN(C)CC3)nc(/C=C/c3ccccc3)n2)n[nH]1` [Example 77, N^4-(5-methyl-1H-pyrazol-3-yl)-N^6-(2-(4-methylpiperazin-1-yl)ethyl)-2-styrylpyrimidine-4,6-diamine], for which the inhibition at 100 µM at recombinant Aurora A stood at 100%; in the assay with HCT-116 cell growth, 99%.

For `Cc1cc(Nc2cc(Nc3ccccc3)nc(/C=C/c3ccccc3)n2)n[nH]1` [Example 82, N^4-(5-methyl-1H-pyrazol-3-yl)-N^6-phenyl-2-styrylpyrimidine-4,6-diamine], the results for the inhibition at 100 µM on recombinant Aurora A and in the assay with HCT-116 cell growth were 100% and 98%, respectively.

`Cc1cc(Nc2cc(N3CCSCC3)nc(/C=C/c3ccccc3)n2)n[nH]1` [Example 83, N-(5methyl-1H-pyrazol-3-yl)-2-styryl-6thiomorpholinopyrimidin-4-amine]: the inhibition at 100 µM was 100% at recombinant Aurora A and 98% with HCT-116 cell growth.

Turning to `Cc1cc(Nc2cc(Nc3ccc(F)cc3)nc(/C=C/c3ccccc3)n2)n[nH]1` [Example 86, N^4-(4-fluorophenyl)-N^6-(5methyl-1H-pyrazol-3-yl)-2-styrylpyrimidine-4,6-diamine], the inhibition at 100 µM at recombinant Aurora A turned out to be 100%; in the assay on HCT-116 cell growth, 98%.

Take `Cc1cc(Nc2cc(NC3CCOCC3)nc(/C=C/c3ccccc3)n2)n[nH]1` [Example 99, N^4-(tetrahydro-2H-pyran-4-yl)-N^6-(5-methyl-1H-pyrazol-3-yl)-2-styrylpyrimidine-4,6-diamine]: the inhibition at 100 µM on recombinant Aurora A was 100%; in the assay on HCT-116 cell growth, 98%.

With `Cc1cc(Nc2cc(OC3CCNCC3)nc(/C=C/c3ccccc3)n2)n[nH]1` [Example 100], the inhibition at 100 µM amounted to 100% at recombinant Aurora A, 96% in the assay with HCT-116 cell growth and 100% on Aurora B kinase.

Regarding `Cc1cc(Nc2cc(N3CCN(C)CC3)nc(/C=C/c3ccc(Br)cc3)n2)n[nH]1` [Example 103, 2-(4-bromostyryl)-N-(5-methyl-1H-pyrazol-3-yl)-6-(4-methylpiperazin-1-yl)pyrimidin-4-amine], the figures for the inhibition at 100 µM at recombinant Aurora A and in the assay on HCT-116 cell growth were 100% and 84%, respectively.

In the case of `COc1ccc(/C=C/c2nc(Nc3cc(C)[nH]n3)cc(N3CCN(C)CC3)n2)cc1` [Example 160, 2-(4-methoxystyryl)-N-(5-methyl-1H-pyrazol-3-yl)-6-(4-methylpiperazin-1-yl)pyrimidin-4-amine], the inhibition at 100 µM on recombinant Aurora A is 100%; with HCT-116 cell growth, 97%.

Consider `Cc1cc(Nc2cc(NCc3ccco3)nc(/C=C/c3ccccc3)n2)n[nH]1` [Example 162, N^4-((furan-2-yl)methyl)-N^6-(5methyl-1H-pyrazol-3-yl)-2-styrylpyrimidine-4,6-diamine], for which the inhibition at 100 µM on recombinant Aurora A came out at 100%; in the assay with HCT-116 cell growth, 98%.

Consider `Cc1ccc(/C=C/c2nc(Nc3cc(C)[nH]n3)c(N)c(N3CCN(C)CC3)n2)cc1` [Example 170], for which the figures for the inhibition at 100 µM at recombinant Aurora A and in the assay with HCT-116 cell growth were 100% and 99%, respectively.

With `Cc1cc(Nc2nc(/C=C/c3ccc(Cl)cc3)nc(N3CCN(C)CC3)c2N)n[nH]1` [Example 172], the inhibition at 100 µM on recombinant Aurora A and with HCT-116 cell growth was 99% each time.

In the case of `Cc1cc(Nc2nc(/C=C/c3ccc(F)cc3)nc(N3CCN(C)CC3)c2N)n[nH]1` [Example 173], the inhibition at 100 µM at recombinant Aurora A was 100%; with HCT-116 cell growth, 98%.

For the origin of these results see patent publication US7563787B2, “Substituted pyrazole compounds” (Miikana Therapeutics, Inc., priority 2005, dated 2009).
